Source: US10344037B2, “Use of the FL-one hundred eighteen core chemical structure platform to generate FL-one hundred eighteen derivatives for treatment of human disease” (priority 2014, dated 2019)

Columns and labels:
[1] = tested on: HCT116 colon cancer cells; test: cells; type: cell-based, human
Description: (§3) Cancer cell viability and growth are determined by MTT assay. […] MTT is used as a colorimetric substrate for measuring cell viability and growth. When cell growth is inhibited, there is an alteration of cellular redox activity, and thus rendering cells unable to reduce the MTT dye. Cells are seeded in 96 well plates overnight and then treated with or without a compound/drug in the presence or absence of an protein molecule inhibitor (e.g. ABCG2 inhibitor ko143) for 48-72 hours, MTT is added to a final concentration 0.5 mg/ml. Cells are continuously incubated in a 5% CO2 incubator at 37° C. for 4 h with MTT and then lysed with a cell lysis buffer (20% SDS, 50% N,N-dimethylformamide, pH 4.7), 100 μl per well, for 4 h in the incubator. Subsequently, cell absorbance in each well is measured at 570 nm with an Ultra Microplate Reader (Bio-Tek Instruments). Results are reported as the mean±SD from 3-5 independent assays at each point. […] After 72 hours, media is removed and cells are harvested using 0.5 ml of 0.25% Trypsin-EDTA. Cells are counted and viability is analyzed on a Vi-CELL XR Cell Viability Analyzer (Beckman Coulter).

[2] = tested on: HCT116-NS6 cells; test: cells; type: cell-based, human
Description: as §3

[3] = tested on: HCT116-G7 cells; test: cells; type: cell-based, human
Description: as §3

[4] = tested on: HCT116-C8 cells; test: cells; type: cell-based, human
Description: as §3

[5] = tested on: survivin promoter; test: Survivin promoter-luciferase activity assay; type: cell-based, human
Description: Cancer cells are seeded in 48-well plates at about 50% confluent overnight in complete cell culture medium. Cells are either stably transfected with the pLuc-4080 survivin promoter-luciferase construct or transiently transfected with relevant luciferase reporter vectors. For transient transfection, 245 ng of targeting luciferase reporter construct plus 5 ng of internal control vector, pRK-tk in 30 μl serum-free DMEM, is mixed in a 1.5 ml tube containing 30 μl serum-free DMEM containing 0.4 μl Lipofectamine™ 2000. After incubation at room temperature for 20-25 minutes, the DNA/Lipofectamine complex is added to each well of 48-well plates, which already contain 300 μl corresponding complete growth medium in each well. […] Cells are further incubated for an additional 24-48 hours in a normoxia and/or hypoxia condition, followed by processing luciferase assays. For luciferase assay, a Dual-Luciferase Reporter Assay System (Promega) is used. Cells in 48-well plates are washed with PBS and lysed with 80 μl 1× passive lysis buffer on a shaker for up to 1 hour at 4° C. Twenty μl cell lysate per well is used to measure the Firefly and Renilla luciferase activity in triplicates in a Luminometer by subsequently adding 20 μl luciferase assay reagent and 20 μl Stop-Glo reagent. […]

[6] = tested on: HIF-1α; test: Western blot for HIF-1α expression under hypoxia in FaDu cells; type: cell-based, human; conditions: 36 h
[7] = tested on: HCT-8 cells; test: Clonogenic assay, HCT-8 cells with shC or shp53; type: cell-based, human; conditions: 0.3 or 10 nM for 3 days, 14-days culture; shC versus shp53
Description: HCT-8 cells are infected with either control lentivirus (shC) or lentivirus expressing shRNA against human p53 (shp53). […] Cell colonies are stained with crystal violet solution after 14-days culture. […] Colonies larger than 50 cells are counted and normalized against non-treatment control group.
Cancer cells are infected with or without lentivirus particles expressing control shRNA or shRNA for p53 knockdown (pLKO.1) followed by selection with puromycin for one week at 5 μg/ml. […] Then the cells are cultured in an incubator at 37° C., 5% CO2 for another two weeks before fixation and staining with crystal violet solution. Colonies are defined as more than 50 cells and/or images are then digitally taken.

[8] = tested on: ABCG2 in HCT116-A2 cells; test: Growth inhibition after ABCG2 shRNA silencing; type: cell-based, human; conditions: 72 hours
Description: Actin is internal control. B and C. […] Cells at sub-confluence are infected with lentiviral particles containing nonsense shRNA (ns), or AGCG2-specific shRNA (sh1, sh2) to silence ABCG2 expression in the cells. […] Viability for each dose was determined using a ViCELL XR cell viability analyzer and normalized to that of DMSO control. Error bars=SEM, n=3 independent experiments. Data are plotted graphically and EC50 values are calculated using GraphPad Prism 6.0.

[9] = tested on: ABCC4 or ABCG2 in HCT-8 colon cancer cells; test: MTT assay of HCT-8 cells transfected with ABCC4 or ABCG2; type: cell-based, human; conditions: 72 hours
Description: HCT-8 colon cancer cells are transfected with empty vector (pcDNA3.1), ABCC4 or ABCG2 expression vectors as shown. […] Cell growth/viability is then determined by MTT assay.

[10] = tested on: HCT-8 cells; test: Colony formation after 2 h or 6 h drug treatment; type: cell-based, human; conditions: 2 h or 6 h treatment, 2 weeks growth
Description: Subconfluent SW620, HCT-8, and HCT-116 cells were lysed and analyzed for the expression of MDR1 and ABCG2 using western blots (WB). Actin is the internal control. […] Cell growth/viability was then analyzed by MTT assays. Each time point in the individual curve is the mean±SD from 3 to 5 independent assays. […] Drugs were then washed out and cells were allowed to grow in new medium without drugs for 2 weeks. Cell colonies were stained with crystal violet solution; images were digitally taken. Triplicate results are shown.
(§1) Cell growth is then measured and the data are plotted as percentage of growth inhibition (no drug treatment was set at 0%). […] C. […] Representative cancer cell images were taken with a digital camera under phase-contrast microscope.

[11] = tested on: HCT-8 colon cancer cells; test: Cell growth inhibition, 72 hours; type: cell-based, human; conditions: HCT-8 cells
Description: as §1

[12] = tested on: FaDu head-&-neck and SW620 CRC tumor xenografts; test: Xenografts with acquired irinotecan or topotecan resistance; type: in vivo, SCID mice; conditions: FL118 1.5 or 1 mg/kg IP q2d×5
Description: (§2) Individual tumor curves derived from individual mice are shown. A. Mice with FaDu head-&-neck tumor xenografts were first treated with irinotecan at its maximum tolerated dose (MTD, 100 mg/kg, IP) weekly for 4-5 times (black arrow). […] B. Mice with FaDu tumor xenografts were first treated with topotecan at its MTD (4 mg/kg, IP) via daily×5 schedules for 4 cycles (each black arrow is one cycle). […] C. Mice with SW620 CRC xenografts were first treated with irinotecan at its MTD (IP, weekly×4, black arrow). […] D. Mice with SW620 xenograft tumors were first treated with topotecan at its MTD.

[13] = in vivo; conditions: weekly×4
Description: as §2

[14] = tested on: pancreatic cancer PDX tumors (12872, 12914, 14244, 17624, 19015); test: Pancreatic cancer patient-derived xenografts (PDX); set-up: species or system SCID mice; conditions: mouse, in vivo
[15] = tested on: human umbilical vein endothelial cells (HUVECS); test: Cell growth and viability, MTT; type: cell-based; conditions: 72 hours
[16] = tested on: cancer cells; test: Cell growth and viability, MTT; type: cell-based, human; conditions: 72 hours
Description: Actin is an internal control for equal protein loading. […] Subconfluent cancer cells as shown are treated with a series of concentrations of crolibulin as shown (0-100 μM) for 72 hours. Cell growth and viability are determined via MTT assay. Each curve is the mean±SD from 4 independent assays.
Crolibulin is an anticancer drug that targets endothelial cells of the cancer vasculature system. Therefore, crolibulin is considered as a vascular disrupt agent (VDA).

[17] = tested on: human proteins (MARK3, DDI1, TPD52L2, CACNB1, PGPCR1, USP2, MC2R, FGF18, TP53I3, CNBP, WDR22, PVGCSE-M1, UBE2T, ULP7, RBMS2, BMX, CCNB1IP1); test: Protein microarray (ProtoArray) with FL118 as a probe; type: binding; conditions: over 9,000 human proteins
From the text: These targets include, but not limited to, MAP/microtubule affinity-regulating kinase 3 (MARK3), DNA-damage inducible 1 (DDI1), tumor protein D52-like 2 (TPD52L2), calcium channel, voltage-dependent, beta 1 subunit (CACNB1), Probable G-protein coupled receptor 1 (PGPCR1), ubiquitin specific peptidase 2 (USP2), melanocortin 2 receptor (MC2R), Fibroblast growth factor 18 (FGF18), tumor protein p53 inducible protein 3 (TP53I3), CCHC-type zinc finger, nucleic acid binding protein (CNBP), WD repeat domain 22 (WDR22), Potassium voltage-gated channel subfamily E member 1 (PVGCSE-M1), ubiquitin-conjugating enzyme E2T (putative) (UBE2T), Ubiquitin-like protein 7 (ULP7), RNA binding motif, single stranded interacting protein 2 (RBMS2), Cytoplasmic tyrosine-protein kinase (BMX), and cyclin B1 interacting protein 1 (CCNB1IP1).

[18] = tested on: FaDu and SW620 tumors
From the text: Three types of human cancer xenografts are used in the studies: 1) from human head-&-neck cancer cell line (FaDu)-established xenografts; 2) from human colon cancer cell line (SW620)-established xenografts; and 3) from human acute lymphocytic leukemia cell line (EU-4)-established xenografts. All in vivo experiments use either nude or severe combined immunodeficiency (SCID) mice. Human tumor cell line-derived xenografts are initially established by subcutaneously injecting 1×10^6 cultured cancer cells. The derived tumors are then passed several generations in mice by transplanting 40-50 mg non-necrotic tumor mass via a trocar after the xenograft tumor reached ˜1000 mm^3. Treatment is initiated 7 days after tumor transplantation when the tumor reached 200-250 mm^3, at which time the treatment was designated as Day 0. Six to 12-week-old female SCID mice used in the studies. All animal experiments are performed in accordance with IACUC-approved animal protocols. Mice were housed 5 mice per cage with water and food ad libitum.

[19] = tested on: HdmX, Hdm2; test: HdmX and Hdm2 protein and mRNA levels in HCT-8 cells
Description: Rescue of HdmX degradation by proteasome inhibitor MG132. […] Cell lysates are then analyzed by immunoblotting of HdmX. Actin expression is used as an internal control.

[20] = IC50 of topotecan divided by IC50 of the drug

CC[C@@]1(O)C(=O)OCc2c1cc1n(c2=O)Cc2cc3cc4c(cc3nc2-1)OCO4 [FL118]
IC50 [1]: 0.0477 nM
RP [1, 20]: 15.67
IC50 [2]: 0.138 nM
RP [2, 20]: 40.87
IC50 [3]: 1.19 nM
RP [3, 20]: 16.22
IC50 [4]: 0.0937 nM
RP [4, 20]: 4041
concentration that can effectively inhibit survivin promoter activity [5]: 1 to 10 nM
hypoxia-induced survivin promoter activity ([5]; HCT116 cells with full-length survivin promoter-luciferase, 24 h, hypoxia): abrogated by FL118 treatment
hypoxia-induced HIF-1α expression [6]: abrogated by FL118 treatment
clonogenic growth [7]: inhibits clonogenic growth independent of p53 status
effect of silencing of ABCG2 on cell growth inhibition [8]: shows no effect to FL118
effect of forced expression of ABCC4 or ABCG2 on resistance [9]: fails to increase FL118 resistance
more effective to inhibit colony formation than topotecan [10]: > 100 time
more sensitive to colon cancer cells than topotecan [11]: at least 25 time
effect on tumors with acquired irinotecan and topotecan resistance [12]: effectively regressed
MTD ([13]; IV injection): 5 mg/kg
body weight loss ([13]; oral administration): Minimal Body Weight Loss
MTD ([13]; oral): 10 mg/kg
efficacy on different PDX tumors of the same type [14]: much different efficacy to different tumors of the same type
sensitivity of HUVEC cells [15]: insensitive to FL118 treatment
sensitivity of cancer cells [16]: sensitive to FL118 treatment
biochemical targets identified [17]: Revealed Novel FL118 Biochemical Targets
mouse deaths ([18]; large tumors, stored FL118 solution, attributed to possible Tumor Lysis Syndrome): death of two mice on Day 37
antitumor activity of stored solution ([18]; ready-to-use solution stored at 4° C. for 6 months, 1.5 mg/kg weekly for 4 weeks): as effective as the newly formulated solution
mRNA levels of HdmX and p21 (quantitative real time PCR) ([19]; FL118 treatment for 8 h): does not significantly alter the mRNA levels of HdmX but increases the control gene p21 mRNA levels
time to HdmX downregulation after treatment ([19]; HCT-8 cells, 100 nM, time course): ≤ 4 h
proteasomal degradation of HdmX and Hdm2 ([19]; HCT-8 cells, 10 and 100 nM): promotes proteasomal degradation of HdmX but not Hdm2
